Structures are written as SMILES.

4 compounds from ChEMBL document CHEMBL1142594, “Antioxidative constituents of Etlingera elatior” (J Nat Prod, 2005) can be followed below.

The experiment can be described thus: Antioxidant activity assessed as inhibition of lipid peroxidation at 300 uM by ferric thiocyanate method. The class given is functional.

On to `O=C(/C=C/C=C/c1ccc(O)cc1)/C=C/c1ccc(O)cc1`, for which the inhibition was determined as 92.1%. On to `Cc1c(C)c2c(c(C)c1O)CC[C@@](C)(CCC[C@H](C)CCC[C@H](C)CCCC(C)C)O2`, for which the inhibition came to 69.5%. Take `COc1cc(/C=C/C(O)=C/C(=O)/C=C/c2ccc(O)cc2)ccc1O`: the inhibition was 92.5%. To `O=C(/C=C/C=C/C=C/c1ccc(O)cc1)c1ccc(O)cc1` belongs 93.7%.
